Assay: xn = mol fraction of the nth substance listed
Conditions: 100 kPa, x1 = 0.0001802

CCCC[n+]1ccn(C)c1.[Cl-] + O + CCCCCCCCCCCCCCCC[N+](C)(C)C.[Br-]
electrical conductivity [S/m]
Conditions | 298 K | 303 K | 308 K | 313 K | 318 K
x3 = 8.8e-07 | 0.095 | 0.094 | 0.096 | 0.101 | 0.101
x3 = 1.79e-06 | 0.096 | 0.095 | 0.097 | 0.101 | 0.101
x3 = 2.67e-06 | 0.097 | 0.095 | 0.097 | 0.102 | 0.102
x3 = 3.56e-06 | 0.097 | 0.096 | 0.098 | 0.102 | 0.102
x3 = 4.42e-06 | 0.098 | 0.096 | 0.098 | 0.103 | 0.102
x3 = 5.31e-06 | 0.098 | 0.096 | 0.098 | 0.103 | 0.103
x3 = 6.17e-06 | 0.098 | 0.097 | 0.099 | 0.104 | 0.103
x3 = 7.02e-06 | 0.098 | 0.097 | 0.099 | 0.104 | 0.103
x3 = 7.87e-06 | 0.098 | 0.097 | 0.099 | 0.104 | 0.103
x3 = 8.72e-06 | 0.098 | 0.097 | 0.1 | 0.104 | 0.104
x3 = 9.57e-06 | 0.099 | – | – | – | –
x3 = 1.04e-05 | 0.099 | 0.098 | 0.1 | 0.105 | 0.104
x3 = 1.124e-05 | 0.099 | – | – | – | –
x3 = 1.206e-05 | 0.099 | 0.098 | 0.1 | 0.105 | 0.104
x3 = 1.289e-05 | 0.099 | – | – | – | –
x3 = 1.37e-05 | 0.099 | 0.098 | 0.1 | 0.105 | 0.104
x3 = 1.451e-05 | 0.099 | – | – | – | –
x3 = 1.532e-05 | 0.1 | 0.099 | 0.101 | 0.105 | 0.105
x3 = 1.612e-05 | 0.1 | – | – | – | –
x3 = 1.691e-05 | 0.1 | 0.099 | 0.101 | 0.106 | 0.105
x3 = 1.77e-05 | 0.1 | – | – | – | –
x3 = 1.848e-05 | 0.1 | 0.099 | 0.101 | 0.106 | 0.105
x3 = 1.928e-05 | 0.1 | – | – | – | –
x3 = 2.005e-05 | 0.1 | 0.099 | 0.101 | 0.106 | 0.105
x3 = 2.081e-05 | 0.1 | – | – | – | –
x3 = 2.159e-05 | 0.1 | 0.1 | 0.102 | 0.106 | 0.105
x3 = 2.234e-05 | 0.101 | – | – | – | –
x3 = 2.31e-05 | 0.101 | 0.1 | 0.102 | 0.107 | 0.106
x3 = 2.386e-05 | 0.101 | – | – | – | –
x3 = 2.46e-05 | 0.101 | 0.1 | 0.102 | 0.107 | 0.106
x3 = 2.534e-05 | 0.101 | – | – | – | –
x3 = 2.608e-05 | – | 0.1 | 0.102 | 0.107 | 0.106
x3 = 2.754e-05 | – | 0.101 | 0.103 | 0.107 | 0.107
x3 = 2.9e-05 | – | 0.101 | 0.103 | 0.108 | 0.107
x3 = 3.043e-05 | – | 0.101 | 0.103 | 0.108 | 0.107
x3 = 3.184e-05 | – | 0.101 | 0.103 | 0.108 | 0.107
x3 = 3.324e-05 | – | 0.101 | 0.103 | 0.108 | 0.107
x3 = 3.462e-05 | – | 0.101 | 0.104 | 0.109 | 0.108
x3 = 3.599e-05 | – | 0.102 | 0.104 | 0.109 | 0.108
x3 = 3.732e-05 | – | 0.102 | 0.104 | 0.109 | 0.108
x3 = 3.866e-05 | – | 0.102 | 0.104 | 0.109 | 0.108
x3 = 3.998e-05 | – | 0.102 | 0.105 | 0.11 | 0.109

Source: the CheMixHub ionic liquid set
